Results on two molecules are retold here after patent publication EP0031883A1, “Antimicrobial agent containing hydroxy butylimidazole derivatives” (BAYER AG, priority 1979, dated 1981).

For this assay, the system named is Candida. In words: Antimicrobial in-vivo activity (oral) in mouse candidosis. Details: species or system Mäuse. The settings on record: SPF-CF1 mice infected i.v. with 1 - 2 x 10^6 Candida cells; 50 - 100 mg/kg oral, one hour before and seven hours after infection; untreated controls about 5 % survival on day 5. Here is the method:
Mäuze vom Typ SPF-CF1 wurden intravenös mit 1 - 2 x 10^6 logaritmisch wachsenden Candida-Zellen, die in physiologischer Kochsalzlösung suspendiert waren, infiziert. Eine Stunde vor und sieben Stunden nach der Infektion werden die Tiere mit jeweils 50 - 100 mg/kg Körpergewicht der Präparate oral behandelt.
Urbehandelte Tiere starben 3 bis 6 Tage post infektionen. Die Überlebensrate am 5. Tag post infektionen betrug bei unbehandelten Kontrolltieren etwa 5 %.

For the molecule `Clc1ccc(COC(Cn2ccnc2)c2ccc(Cl)cc2Cl)c(Cl)c1` (stereo not drawn) [Miconazol®, 1-[2,4-Dichlor-β-(2,4-dichlorbenzyloxy)-phenethyl]-imidazolnatrium], the Wirkung result is recorded as “keine Wirkung”. In the case of `CC(C)(C)C(O)(Cn1ccnc1)c1ccc(-c2ccc(Cl)cc2)cc1` (centres unmarked) [Verbindung 2, 1-(4-p-Chlorbiphenylyl)-1-(tert.-butyl)-2-(imidazol-1-yl)-ethan-1-ol] it was “sehr gute Wirkung”.
